# Test results as given in US8802597B2, “Herbicidal pyrimidines” (E I du Pont de Nemours and Company, priority 2003, dated 2014).
# Where two headings read alike, the source gives them in different places.
# Columns and labels:
# Assay type in all cases: in vivo
# [1] = system: duck salad (Heteranthera limosa); assay: Test C flooded paddy test; details: Flood, scale 0 to 100
# Experimental: (§1) At the same time, plants selected from these crop and weed species and also winter barley (Hordeum vulgare), blackgrass (Alopecurus myosuroides), canarygrass (Phalaris minor), chickweed (Stellaria media), downy brome (Bromus tectorum), green foxtail (Setaria viridis), Italian ryegrass (Lolium multiflorum), wheat (Triticum aestivum), wild oat (Avena fatua) and windgrass (Apera spica-venti) were treated with postemergence applications of some of the test chemicals formulated in the same manner. Plants ranged in height from 2 to 18 cm (1- to 4-leaf stage) for postemergence treatments. Plant species in the flooded paddy test consisted of rice (Oryza sativa), umbrella sedge (Cyperus difformis), duck salad (Heteranthera limosa) and barnyardgrass (Echinochloa crus-galli) grown to the 2-leaf stage for testing. Treated plants and controls were maintained in a greenhouse for 12 to 14 days, after which time all species were compared to controls and visually evaluated. Plant response ratings, summarized in Table C, are based on a scale of 0 to 100 where 0 is no effect and 100 is complete control. A dash (-) response means no test result.
# [2] = system: barnyardgrass (Echinochloa crus-galli); assay: Test C flooded paddy test; details: Flood
# Experimental: as §1
# [3] = system: rice (Oryza sativa); assay: Test C flooded paddy test; details: Flood, scale 0 to 100
# Experimental: as §1
# [4] = system: velvetleaf (Abutilon theophrasti); assay: Test A pre/postemergence; details: Abutilon theophrasti, 240 h, read-out: Plant response rating, Velvetleaf; for pest or weed control at 125 g/ha: 125 g ai/ha; for pest or weed control at 500 g/ha: 500 g ai/ha
# Procedure, shortened: (§2)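 Compared with untreated controls, treated plants were visually rated for injury on a 0 (none) to 100 (complete control) scale about ten days after spraying. Pre- and postemergence applications used one solvent/surfactant formulation; postemergence plants measured 2–10 cm.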
# [5] = system: redroot pigweed (Amaranthus retroflexus); assay: Test A pre/postemergence; details: Amaranthus retroflexus, 240 h, read-out: Plant response rating, Pigweed; for pest or weed control at 125 g/ha: 125 g ai/ha; for pest or weed control at 500 g/ha: 500 g ai/ha
# Procedure, shortened: as §2
# [6] = system: crabgrass (Digitaria sanguinalis); assay: Test A pre/postemergence; details: Digitaria sanguinalis, 240 h, read-out: Plant response rating, Crabgrass; for pest or weed control at 125 g/ha: 125 g ai/ha; for pest or weed control at 500 g/ha: 500 g ai/ha
# Procedure, shortened: as §2
# [7] = system: morningglory (Ipomoea spp.); assay: Test A pre/postemergence; details: Ipomoea, 240 h, read-out: Plant response rating, Morningglory; for pest or weed control at 125 g/ha: 125 g ai/ha; for pest or weed control at 500 g/ha: 500 g ai/ha
# Procedure, shortened: as §2
# [8] = system: canarygrass (Phalaris minor); assay: Test C postemergence
# Procedure, shortened: (§3)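 Injury scored visually 12–14 days after application on 0–100 scale (100 = complete control), relative to controls. Compounds, formulated with surfactant in non-phytotoxic solvent, applied to soil at planting (pre) or to 1- to 4-leaf plants 2–18 cm tall (post) in greenhouse.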
# [9] = system: wheat (Triticum aestivum); assay: Test C postemergence
# Procedure, shortened: as §3
# [10] = system: windgrass (Apera spica-venti); assay: Test C postemergence
# Procedure, shortened: as §3
# [11] = system: green foxtail (Setaria viridis); assay: Test C postemergence
# Procedure, shortened: as §3
# [12] = system: winter barley (Hordeum vulgare); assay: Test C postemergence
# Procedure, shortened: as §3
# [13] = system: wild oat (Avena fatua); assay: Test C postemergence
# Procedure, shortened: as §3
# [14] = system: Italian ryegrass (Lolium multiflorum); assay: Test C postemergence
# Procedure, shortened: as §3
# [15] = system: blackgrass (Alopecurus myosuroides); assay: Test C postemergence
# Procedure, shortened: as §3
# [16] = system: downy brome (Bromus tectorum); assay: Test C postemergence
# Procedure, shortened: as §3
# [17] = 500 g ai/ha, scale 0 to 100 (0 no effect, 100 complete control)
# [18] = post-emergence, Postemergence, 0 to 100 scale (0 no effect, 100 complete control)
# [19] = pre-emergence, Preemergence, 0 to 100 scale where 0 is no effect and 100 is complete control, approximately ten days
compound,measurement,setting,value
"COC(=O)c1nc(C2CC2)nc(N)c1Cl [Compound 9, methyl 6-amino-5-chloro-2-cyclopropyl-4-pyrimidinecarboxylate]","Plant response rating, Ducksalad",[1]; 62 g ai/ha,45
same,"Plant response rating, Ducksalad",[1]; 125 g ai/ha,70
same,"Plant response rating, Ducksalad",[1]; 250 g ai/ha,80
same,"Plant response rating, Ducksalad",[1]; 500 g ai/ha,90
same,"Plant response rating, Barnyardgrass","[2]; 62 g ai/ha, scale 0 to 100",0
same,"Plant response rating, Barnyardgrass","[2]; 125 g ai/ha, scale 0 to 100",15
same,"Plant response rating, Barnyardgrass","[2]; 250 g ai/ha, scale 0 to 100",55
same,"Plant response rating, Barnyardgrass",[2]; [17],85
same,"Plant response rating, Rice",[3]; 62 g ai/ha,0
same,"Plant response rating, Rice",[3]; 125 g ai/ha,30
same,"Plant response rating, Rice",[3]; 250 g ai/ha,55
same,"Plant response rating, Rice",[3]; 500 g ai/ha,75
Nc1nc(C2CC2)nc(C=O)c1Br [Compound 26],"Plant response rating, Ducksalad",[1]; 62 g ai/ha,40
same,"Plant response rating, Ducksalad",[1]; 125 g ai/ha,40
same,"Plant response rating, Ducksalad",[1]; 250 g ai/ha,40
same,"Plant response rating, Ducksalad",[1]; 500 g ai/ha,40
same,"Plant response rating, Barnyardgrass","[2]; 62 g ai/ha, scale 0 to 100",0
same,"Plant response rating, Barnyardgrass","[2]; 125 g ai/ha, scale 0 to 100",0
same,"Plant response rating, Barnyardgrass","[2]; 250 g ai/ha, scale 0 to 100",0
same,"Plant response rating, Barnyardgrass",[2]; [17],0
same,"Plant response rating, Rice",[3]; 62 g ai/ha,0
same,"Plant response rating, Rice",[3]; 125 g ai/ha,0
same,"Plant response rating, Rice",[3]; 250 g ai/ha,20
same,"Plant response rating, Rice",[3]; 500 g ai/ha,25
CC(C)COC(=O)c1nc(C2CC2)nc(N)c1Br [Compound 17],"Plant response rating, Ducksalad",[1]; 62 g ai/ha,0
same,"Plant response rating, Ducksalad",[1]; 125 g ai/ha,0
same,"Plant response rating, Ducksalad",[1]; 250 g ai/ha,80
same,"Plant response rating, Ducksalad",[1]; 500 g ai/ha,80
same,"Plant response rating, Barnyardgrass","[2]; 62 g ai/ha, scale 0 to 100",0
same,"Plant response rating, Barnyardgrass","[2]; 125 g ai/ha, scale 0 to 100",0
same,"Plant response rating, Barnyardgrass","[2]; 250 g ai/ha, scale 0 to 100",0
same,"Plant response rating, Barnyardgrass",[2]; [17],50
same,"Plant response rating, Rice",[3]; 62 g ai/ha,0
same,"Plant response rating, Rice",[3]; 125 g ai/ha,0
same,"Plant response rating, Rice",[3]; 250 g ai/ha,45
same,"Plant response rating, Rice",[3]; 500 g ai/ha,75
"CCOC(=O)c1nc(-c2ccc(Cl)cc2)nc(N)c1Cl [Compound 64, ethyl 6-amino-5-chloro-2-(4-chlorophenyl)-4-pyrimidinecarboxylate]",pest or weed control at 125 g/ha,[4]; [18],95%
same,pest or weed control at 500 g/ha,[4]; [18],100%
same,pest or weed control at 125 g/ha,[4]; [19],25%
same,pest or weed control at 500 g/ha,[4]; [19],95%
same,pest or weed control at 125 g/ha,[5]; [18],90%
same,pest or weed control at 500 g/ha,[5]; [18],100%
same,pest or weed control at 125 g/ha,[5]; [19],20%
same,pest or weed control at 500 g/ha,[5]; [19],100%
same,pest or weed control at 125 g/ha,[6]; [18],50%
same,pest or weed control at 500 g/ha,[6]; [18],70%
same,pest or weed control at 125 g/ha,[6]; [19],25%
same,pest or weed control at 500 g/ha,[6]; [19],90%
same,pest or weed control at 125 g/ha,[7]; [18],80%
same,pest or weed control at 500 g/ha,[7]; [18],95%
same,pest or weed control at 125 g/ha,[7]; [19],40%
same,pest or weed control at 500 g/ha,[7]; [19],70%
same,"Plant response rating (scale of 0 to 100), Canarygrass",[8]; 31 g ai/ha,5
same,"Plant response rating, Canarygrass","[8]; 250 g ai/ha, scale 0 to 100",10
same,pest or weed control at 62 g/ha,"[8]; Phalaris minor, post-emergence, 62 g ai/ha, scale 0 to 100 (0 no effect, 100 complete control), read-out: Canarygrass plant response rating",5%
same,pest or weed control at 125 g/ha,"[8]; Phalaris minor, post-emergence, 125 g ai/ha, scale 0 to 100 (0 no effect, 100 complete control), read-out: Canarygrass plant response rating",10%
same,"Plant response rating (scale of 0 to 100), Wheat",[9]; 31 g ai/ha,0
same,"Plant response rating, Wheat","[9]; 250 g ai/ha, scale 0 to 100",10
same,plant injury at 62 g/ha,"[9]; Triticum aestivum, post-emergence, 62 g ai/ha, scale 0 to 100 (0 no effect, 100 complete control), read-out: Wheat plant response rating",0%
same,plant injury at 125 g/ha,"[9]; Triticum aestivum, post-emergence, 125 g ai/ha, scale 0 to 100 (0 no effect, 100 complete control), read-out: Wheat plant response rating",10%
same,"Plant response rating (scale of 0 to 100), Windgrass",[10]; 31 g ai/ha,40
same,"Plant response rating, Windgrass","[10]; 250 g ai/ha, scale 0 to 100",60
same,pest or weed control at 62 g/ha,"[10]; Apera spica-venti, post-emergence, 62 g ai/ha, scale 0 to 100 (0 no effect, 100 complete control), read-out: Windgrass plant response rating",55%
same,pest or weed control at 125 g/ha,"[10]; Apera spica-venti, post-emergence, 125 g ai/ha, scale 0 to 100 (0 no effect, 100 complete control), read-out: Windgrass plant response rating",55%
same,"Plant response rating (scale of 0 to 100), Foxtail, Green",[11]; 31 g ai/ha,0
same,"Plant response rating, Foxtail, Green","[11]; 250 g ai/ha, scale 0 to 100",45
same,pest or weed control at 62 g/ha,"[11]; Setaria viridis, post-emergence, 62 g ai/ha, scale 0 to 100 (0 no effect, 100 complete control), read-out: Foxtail, Green plant response rating",30%
same,pest or weed control at 125 g/ha,"[11]; Setaria viridis, post-emergence, 125 g ai/ha, scale 0 to 100 (0 no effect, 100 complete control), read-out: Foxtail, Green plant response rating",40%
same,"Plant response rating (scale of 0 to 100), Barley",[12]; 31 g ai/ha,20
same,"Plant response rating, Barley","[12]; 250 g ai/ha, scale 0 to 100",100
same,plant injury at 62 g/ha,"[12]; Hordeum vulgare, post-emergence, 62 g ai/ha, scale 0 to 100 (0 no effect, 100 complete control), read-out: Barley plant response rating",20%
same,"Plant response rating (scale of 0 to 100), Oat, Wild",[13]; 31 g ai/ha,5
same,"Plant response rating, Oat, Wild","[13]; 250 g ai/ha, scale 0 to 100",10
same,pest or weed control at 62 g/ha,"[13]; Avena fatua, post-emergence, 62 g ai/ha, scale 0 to 100 (0 no effect, 100 complete control), read-out: Oat, Wild plant response rating",5%
same,pest or weed control at 125 g/ha,"[13]; Avena fatua, post-emergence, 125 g ai/ha, scale 0 to 100 (0 no effect, 100 complete control), read-out: Oat, Wild plant response rating",10%
same,"Plant response rating (scale of 0 to 100), Ryegrass, Italian",[14]; 31 g ai/ha,5
same,"Plant response rating, Ryegrass, Italian","[14]; 250 g ai/ha, scale 0 to 100",45
same,pest or weed control at 62 g/ha,"[14]; Lolium multiflorum, post-emergence, 62 g ai/ha, scale 0 to 100 (0 no effect, 100 complete control), read-out: Ryegrass, Italian plant response rating",30%
same,pest or weed control at 125 g/ha,"[14]; Lolium multiflorum, post-emergence, 125 g ai/ha, scale 0 to 100 (0 no effect, 100 complete control), read-out: Ryegrass, Italian plant response rating",35%
same,"Plant response rating (scale of 0 to 100), Blackgrass",[15]; 31 g ai/ha,40
same,"Plant response rating, Blackgrass","[15]; 250 g ai/ha, scale 0 to 100",50
same,pest or weed control at 62 g/ha,"[15]; Alopecurus myosuroides, post-emergence, 62 g ai/ha, scale 0 to 100 (0 no effect, 100 complete control), read-out: Blackgrass plant response rating",45%
same,pest or weed control at 125 g/ha,"[15]; Alopecurus myosuroides, post-emergence, 125 g ai/ha, scale 0 to 100 (0 no effect, 100 complete control), read-out: Blackgrass plant response rating",50%
same,"Plant response rating (scale of 0 to 100), Bromegrass, Downy",[16]; 31 g ai/ha,10
same,"Plant response rating, Bromegrass, Downy","[16]; 250 g ai/ha, scale 0 to 100",20
same,pest or weed control at 62 g/ha,"[16]; Bromus tectorum, post-emergence, 62 g ai/ha, scale 0 to 100 (0 no effect, 100 complete control), read-out: Bromegrass, Downy plant response rating",15%
same,pest or weed control at 125 g/ha,"[16]; Bromus tectorum, post-emergence, 125 g ai/ha, scale 0 to 100 (0 no effect, 100 complete control), read-out: Bromegrass, Downy plant response rating",20%
